This passage reports IC50 and melting point results from patent US9884806B2, “Cyclic vinylogous amides as bromodomain inhibitors” (ICAHN SCHOOL OF MEDICINE AT MOUNT SINAI, priority 2013, dated 2018).

For data set [1], the target named is T1, first bromodomain (BrD1) of human BRD4 (Homo sapiens, UniProt O60885).
T1 construct: the first bromodomain (BrD1) of human BRD4; poly-His (cleaved yes); made in house
Briefly: Fluorescence anisotropy binding assay (competition with FITC-labeled MS417 probe). Conditions: FITC-MS417 probe 80 nM, PBS pH 7.4, 1 hour, 25° C., read-out: BRD4_1 IC50. An outline of the steps:
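Competitive fluorescence anisotropy in PBS pH 7.4: 80 nM FITC-MS417 probe, 0.25 to 1 μM tag-cleaved BrD1, titrated unlabeled ligand, 1 hour at 25° C. IC50 values were fitted and converted to Ki using a corrected Cheng-Prusoff equation assuming one-site competition.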

In another data set the target is T2, BRD4_2 (Homo sapiens, UniProt O60885).
T2 construct: contains two tandem bromodomains (BrD1 and BrD2)
Briefly: Fluorescence anisotropy binding assay (competition with FITC-labeled MS417 probe), BRD4_2. Particulars: FITC-MS417 probe 80 nM, PBS pH 7.4, 1 hour, 25° C.

Molecules are shown by their SMILES.

For `CC1=C(Nc2cc(NC(=O)C3CCCCC3)ccc2Cl)CCC1=O` [Example 05-39, N-(4-chloro-3-[(2-methyl-3-oxocyclopent-1-en-1-yl)amino]phenyl)-cyclohexanecarboxamide], the melting point is 240 to 242 °C. For the same compound, the IC50 in data set [1] is less than 1000 nM. The compound further came in with an IC50 on BRD4_2 of 1000 to 10000 nM.
The corresponding values for `CC1=C(Nc2cc(NC(=O)c3cccc4ccccc34)ccc2Cl)CCC1=O` [Example 05-40, N-(4-chloro-3-[(2-methyl-3-oxocyclopent-1-en-1-yl)amino]phenyl)-naphthalene-1-carboxamide] are 243 to 245 °C, less than 1000 nM and less than 1000 nM.
The compound `CC1=C(Nc2ccc(NC(=O)c3ccccc3C)cc2Cl)CCC1=O` [Example 05-41, N-(3-chloro-4-((2-methyl-3-oxocyclopent-1-en-1-yl)amino)phenyl)-2-methylbenzamide] showed a melting point of 280 to 283 °C. Also, the IC50 in data set [1] was less than 1000 nM. At BRD4_2, this compound displayed an IC50 of 1000 to 10000 nM.
For the compound `CC1=C(Nc2cccc(NC(=O)c3ccccc3C)c2Cl)CCC1=O` [Example 05-42, N-(2-chloro-3-((2-methyl-3-oxocyclopent-1-en-1-yl)amino)phenyl)-2-methylbenzamide], the melting point was in the range of 118 to 120 °C. Also, the IC50 in data set [1] was less than 1000 nM. Further, the IC50 on BRD4_2 is 1000 to 10000 nM.
In the same order, the values of `COc1ccc(C(=O)Nc2ccc(Cl)c(NC3=C(C)C(=O)CCC3)c2)cc1` [Example 05-43, N-(4-chloro-3-((2-methyl-3-oxocyclohex-1-en-1-yl)amino)phenyl)-4-methoxybenzamide] are 190 to 195 °C, more than 10000 nM and more than 10000 nM.
`CC1=C(Nc2cc(NC(=O)c3ccccc3C)ccc2Cl)CCCC1=O` [Example 05-44, N-(4-chloro-3-((2-methyl-3-oxocyclohex-1-en-1-yl)amino)phenyl)-2-methylbenzamide]: the melting point lay within 199 to 201 °C. Further, the IC50 in data set [1] was less than 1000 nM. Besides, the 50% inhibitory concentration (IC50) at BRD4_2 was in the range of 1000 to 10000 nM.
In the case of `CC1=C(Nc2cc(NC(=O)C3CCCCC3)ccc2Cl)CCCC1=O` [Example 05-45, N-(4-chloro-3-((2-methyl-3-oxocyclohex-1-en-1-yl)amino)phenyl)-cyclohexanecarboxamide], the melting point was in the range of 192 to 195 °C. Moreover, in data set [1], the IC50 is less than 1000 nM. The IC50 at BRD4_2 is 1000 to 10000 nM.
In the same order, the values of `CC1=C(Nc2cc(NC(=O)c3cccc4ccccc34)ccc2Cl)CCCC1=O` [Example 05-46, N-(4-chloro-3-((2-methyl-3-oxocyclohex-1-en-1-yl)amino)phenyl)-1-naphthamide] are 245 to 247 °C, less than 1000 nM and 1000 to 10000 nM.
The compound `CC1=C(Nc2ccc(NC(=O)c3cccc4ccccc34)cc2Cl)CCCC1=O` [Example 05-47, N-(3-chloro-4-((2-methyl-3-oxocyclohex-1-en-1-yl)amino)phenyl)-1-naphthamide] yielded a melting point of 245 to 247 °C. Moreover, in data set [1], the IC50 was less than 1000 nM. This compound registered an IC50 on BRD4_2 of 1000 to 10000 nM.
`CC1=C(Nc2ccc(NC(=O)c3ccccc3C)cc2Cl)CCCC1=O` [Example 05-48, N-(3-chloro-4-((2-methyl-3-oxocyclohex-1-en-1-yl)amino)phenyl)-2-methylbenzamide] yielded a melting point of 234 to 236 °C. The IC50 in data set [1] is less than 1000 nM. For the same compound, the IC50 on BRD4_2 was in the range of 1000 to 10000 nM.
In turn, `CC1=C(Nc2ccc(NC(=O)C3CCCCC3)cc2Cl)CCCC1=O` [Example 05-49, N-(3-chloro-4-((2-methyl-3-oxocyclohex-1-en-1-yl)amino)phenyl)-cyclohexanecarboxamide] displayed a melting point of 248 to 250 °C. For the same compound, in data set [1], the IC50 is less than 1000 nM. Besides, at BRD4_2, the IC50 was 1000 to 10000 nM.
In turn, `CC1=C(Nc2cccc(NC(=O)C3CCCCC3)c2Cl)CCCC1=O` [Example 05-51, N-(2-chloro-3-((2-methyl-3-oxocyclohex-1-en-1-yl)amino)phenyl)-cyclohexanecarboxamide] had a melting point of 205 to 208 °C. For the same compound, the IC50 in data set [1] was in the range of 1000 to 10000 nM. The same compound gave an IC50 on BRD4_2 of more than 10000 nM.
The corresponding values for `CC1=C(Nc2cccc(NC(=O)c3cccc4ccccc34)c2Cl)CCCC1=O` [Example 05-52, N-(2-chloro-3-((2-methyl-3-oxocyclohex-1-en-1-yl)amino)phenyl)-1-naphthamide] are 178 to 180 °C, less than 1000 nM and 1000 to 10000 nM.
As to `CC1=C(Nc2cc(NS(C)(=O)=O)ccc2Cl)CCC1=O` [Example 05-53, N-(4-chloro-3-((2-methyl-3-oxocyclopent-1-en-1-yl)amino)-phenyl)-methanesulfonamide], the melting point fell in the range of 213 to 215 °C. Moreover, the IC50 in data set [1] was in the range of 1000 to 10000 nM. For the same compound, the IC50 at BRD4_2 lay in the range of 1000 to 10000 nM.
The compound `CC1=C(Nc2cc(NS(=O)(=O)Cc3ccccc3)ccc2Cl)CCC1=O` [Example 05-54, N-(4-chloro-3-((2-methyl-3-oxocyclopent-1-en-1-yl)amino)phenyl)-1-phenylmethanesulfonamide] registered a melting point of 196 to 198 °C. For the same compound, the IC50 in data set [1] was less than 1000 nM. This compound also came in with an IC50 on BRD4_2 of less than 1000 nM.
`CC1=C(Nc2cc(NS(=O)(=O)C3CCCCC3)ccc2Cl)CCC1=O` [Example 05-55, N-(4-chloro-3-((2-methyl-3-oxocyclopent-1-en-1-yl)amino)phenyl)-cyclohexanesulfonamide] returned a melting point of 158 to 160 °C. Moreover, in data set [1], the IC50 is less than 1000 nM. At BRD4_2, this compound registered an IC50 of 1000 to 10000 nM.
The compound `CC1=C(Nc2cc(NS(=O)(=O)c3ccccc3F)ccc2Cl)CCC1=O` [Example 05-58, N-(4-chloro-3-((2-methyl-3-oxocyclopent-1-en-1-yl)amino)phenyl)-2-fluorobenzenesulfonamide] yielded a melting point of 215 to 217 °C. In data set [1], the IC50 is less than 1000 nM. The IC50 on BRD4_2 was less than 1000 nM.
Compound `CC1=C(Nc2cc(NS(=O)(=O)c3ccccc3C#N)ccc2Cl)CCC1=O` [Example 05-59, N-(4-chloro-3-((2-methyl-3-oxocyclopent-1-en-1-yl)amino)phenyl)-2-cyanobenzenesulfonamide] showed a melting point of 235 to 238 °C. Also, the IC50 in data set [1] is less than 1000 nM. Also, the IC50 at BRD4_2 is less than 1000 nM.
`COc1ccccc1S(=O)(=O)Nc1ccc(Cl)c(NC2=C(C)C(=O)CC2)c1` [Example 05-60, N-(4-chloro-3-((2-methyl-3-oxocyclopent-1-en-1-yl)amino)phenyl)-2-methoxybenzenesulfonamide] had a melting point of 198 to 200 °C. Also, the IC50 in data set [1] was less than 1000 nM. The IC50 on BRD4_2 is less than 1000 nM.
In the case of `CC1=C(Nc2cc(NS(=O)(=O)N3CCCCC3)ccc2Cl)CCC1=O` [Example 05-61, N-(4-chloro-3-((2-methyl-3-oxocyclopent-1-en-1-yl)amino)phenyl)-piperidine-1-sulfonamide], the melting point was in the range of 78 to 80 °C. Further, in data set [1], the IC50 is less than 1000 nM. This compound gave an IC50 at BRD4_2 of less than 1000 nM.
The compound `CC1=C(Nc2cc(NS(=O)(=O)N3CCOCC3)ccc2Cl)CCC1=O` [Example 05-62, N-(4-chloro-3-((2-methyl-3-oxocyclopent-1-en-1-yl)amino)phenyl)-morpholine-4-sulfonamide] yielded a melting point of 60 to 67 °C. Also, the IC50 in data set [1] is less than 1000 nM. Besides, the IC50 on BRD4_2 is 1000 to 10000 nM.
For `CC1=C(Nc2ccc(NS(=O)(=O)c3ccccc3C)cc2Cl)CCC1=O` [Example 05-63, N-(3-chloro-4-((2-methyl-3-oxocyclopent-1-en-1-yl)amino)phenyl)-2-methylbenzenesulfonamide], the melting point was 215 to 218 °C. The IC50 in data set [1] is less than 1000 nM. The same compound displayed an IC50 at BRD4_2 of 1000 to 10000 nM.
`CC1=C(Nc2ccc(NS(=O)(=O)C3CCCCC3)cc2Cl)CCC1=O` [Example 05-64, N-(3-chloro-4-((2-methyl-3-oxocyclopent-1-en-1-yl)amino)phenyl)-cyclohexanesulfonamide] displayed a melting point of 210 to 213 °C. Besides, the IC50 in data set [1] is less than 1000 nM. The same compound yielded an IC50 on BRD4_2 of 1000 to 10000 nM.
Turning to `CC1=C(Nc2cccc(NS(=O)(=O)c3ccccc3C)c2Cl)CCC1=O` [Example 05-65, N-(2-chloro-3-((2-methyl-3-oxocyclopent-1-en-1-yl)amino)phenyl)-2-methylbenzenesulfonamide], the melting point is 75 to 77 °C. The IC50 in data set [1] was less than 1000 nM. At BRD4_2, this compound had an IC50 of 1000 to 10000 nM.
With `CC1=C(Nc2cc(NS(=O)(=O)C3CCCCC3)ccc2Cl)CCCC1=O` [Example 05-67, N-(4-chloro-3-((2-methyl-3-oxocyclohex-1-en-1-yl)amino)phenyl)-cyclohexanesulfonamide], the melting point is 215 to 217 °C. In data set [1], the IC50 is less than 1000 nM. Further, the IC50 on BRD4_2 is less than 1000 nM.
The compound `CC1=C(Nc2ccc(NS(=O)(=O)C3CCCCC3)cc2Cl)CCCC1=O` [Example 05-69, N-(3-chloro-4-((2-methyl-3-oxocyclohex-1-en-1-yl)amino)phenyl)-cyclohexanesulfonamide] came in with a melting point of 230 to 232 °C. Further, the IC50 in data set [1] is less than 1000 nM. Also, the IC50 on BRD4_2 is 1000 to 10000 nM.
In turn, `CC1=C(Nc2cc(NCc3ccccc3C)ccc2Cl)CCCC1=O` [Example 05-72, 3-((2-chloro-5-((2-methylbenzyl)amino)phenyl)amino)-2-methylcyclohex-2-enone] returned a melting point of 158 to 160 °C. Besides, in data set [1], the IC50 was less than 1000 nM. On BRD4_2, this compound showed an IC50 of less than 1000 nM.
